Experimental data from patent US20220168296A1, “METHODS OF TREATING CANCER WITH FARNESYLTRANSFERASE INHIBITORS” (Kura Oncology, Inc., priority 2019, published 2022).

Assays:
Assay type in all cases: in vivo, human
Hodgkin Lymphoma (HL) = assay: Phase II clinical study with tipifarnib in relapsed or refractory lymphoma patients: HL subjects; conditions: among 6 HL patients with pre-treatment tumor samples; 300 mg orally bid days 1-21 of 28 day cycles
Procedure: A Phase II clinical study with tipifarnib was performed in relapsed or refractory non-Hodgkin's lymphoma patients (N=93), wherein the types of non-Hodgkin's lymphoma included Diffuse Large B Cell Lymphoma (DLBCL) and Mycosis Fungoides (MF). Eligible patients received 300 mg tipifarnib as a single agent orally, twice a day (bid) on days 1-21 of 28 day cycles. Courses were repeated every 28 days in the absence of disease progression or unacceptable toxicity. Primary objective of assessing objective tumor response, in terms of Objective Response Rate (ORR), was determined using the International Workshop Criteria (IWC). […]

Mycosis Fungoides (MF) = assay: Phase II clinical study with tipifarnib in relapsed or refractory non-Hodgkin's lymphoma patients: MF subjects
Procedure: A Phase II clinical study with tipifarnib was performed in relapsed or refractory non-Hodgkin's lymphoma patients (N=93), wherein the types of non-Hodgkin's lymphoma included Diffuse Large B Cell Lymphoma (DLBCL) and Mycosis Fungoides (MF). Eligible patients received 300 mg tipifarnib as a single agent orally, twice a day (bid) on days 1-21 of 28 day cycles. Courses were repeated every 28 days in the absence of disease progression or unacceptable toxicity. Primary objective of assessing objective tumor response, in terms of Objective Response Rate (ORR), was determined using the International Workshop Criteria (IWC). […] CXCL12, CXCR4, CXCR7, and […]2, mRNA expression data were generated by RNASeq and expressed as RNA Seq RSEM.

[1] = system: relapsed or refractory Diffuse Large B Cell Lymphoma (DLBCL); assay: Phase II clinical study with tipifarnib in relapsed or refractory non-Hodgkin's lymphoma patients: DLBCL subjects; parameters: key to Best Response: a partial response (PR); Stable disease (SD) can be defined as any response not meeting CR, PR, HI, or PD criteria; Progressive disease (PD) can be defined as either >50% increase in lymph node or circulating blast % from baseline, or new appearance of circulating blasts (on at least 2 consecutive occasions)
Procedure: A Phase II clinical study with tipifarnib was performed in relapsed or refractory non-Hodgkin's lymphoma patients (N=93), wherein the types of non-Hodgkin's lymphoma included Diffuse Large B Cell Lymphoma (DLBCL) and Mycosis Fungoides (MF). Eligible patients received 300 mg tipifarnib as a single agent orally, twice a day (bid) on days 1-21 of 28 day cycles. Courses were repeated every 28 days in the absence of disease progression or unacceptable toxicity. Primary objective of assessing objective tumor response, in terms of Objective Response Rate (ORR), was determined using the International Workshop Criteria (IWC).
Exclusion Criteria for this clinical study include: (a) pregnant women; (b) breastfeeding women; (c) men or women of childbearing potential or their sexual partners who are unwilling to employ adequate contraception (condoms, diaphragm, birth control pills, injections, intrauterine device [IUD], surgical sterilization, subcutaneous implants, or abstinence, etc.); (d) life-threatening illness (unrelated to tumor); (e) ongoing radiation therapy or radiation therapy ≤3 weeks prior to study registration unless the acute side effects associated with such therapy are resolved; (f) therapy with myelosuppressive chemotherapy, cytotoxic chemotherapy, or biologic therapy ≤3 weeks (6 weeks for nitrosourea or mitomycin C) or corticosteroids ≤2 weeks, prior to starting R11577; patients may be on corticosteroids or tapering off them up until the day they start R11577 as long as it is clear that they are not having a tumor response to the steroids or that the steroids would confuse the interpretation of response to R11577; patients may be receiving stable (not increased within the last month) chronic doses of corticosteroids with a maximum dose of 20 mg of prednisone per day if they are being given for disorders other than lymphoma such as rheumatoid arthritis, polymyalgia rheumatica, adrenal insufficiency, or intractable symptoms of lymphoma; (g) peripheral neuropathy ≥grade 3; (h) serious non-malignant disease such as active infection or other condition which in the opinion of the investigator would compromise other protocol objectives; (i) presence of central nervous system (CNS) lymphoma; (j) other active malignancies; (k) once a patient begins FTI (tipifarnib) treatment, the addition of other cancer treatment will confound the assessment of efficacy and therefore is not allowed; this restriction precludes the addition of cytotoxic, immunologic agents, radiotherapy, or an increase in corticosteroid dose while the patient is in the treatment phase of this protocol; (l) known to be human immunodeficiency virus (HIV) positive; HIV testing is not required but should be done if clinically indicated; HIV patients are excluded because of concerns regarding excess risk of complications of immunosuppressive therapy regimens; and (m) known allergy to imidazole drugs such as clotrimazole, ketoconazole, miconazole, econazole, fenticonazole, sulconazole, tioconazole, or terconazole.
Pre-treatment tumor samples and best response data were obtained from 20 patients (N=20): 6 Diffuse Large B Cell Lymphoma (DLBCL), 6 Hodgkin Lymphoma (HL), 4 Follicular Lymphoma (FL), 1 Marginal Zone B Cell Lymphoma, 1 PTCL NOS, and 2 Mycosis Fungoides (MF). Within these 20 patients, the following objective responses were identified: 3 PRs and 1 SD were reported in DLBCL, 1PR in HL, and 2PRs in MF.
CXCL12, CXCR4, CXCR7, and PRICLKE2, mRNA expression data were generated by RNASeq and expressed as RNA Seq RSEM.

[2] = among 6 DLBCL patients with pre-treatment tumor samples, 300 mg orally bid days 1-21 of 28 day cycles
[3] = high PRICKLE2 and CXCL12/CXCR4 ratio greater than about 1/10 (about 0.10), out of 6 subjects (FIG. 2B)
[4] = low PRICKLE2 and lower CXCL12/CXCR4 ratio, cut-off about 1/10 (about 0.10), out of 6 subjects (FIG. 2B)
[5] = low PRICKLE2 and lower CXCL12/CXCR4 ratio, cut-off about 3/20 (about 0.15), out of 6 subjects (FIG. 2B)
[6] = low pre-treatment CXCL12 expression levels, out of 6 subjects (FIG. 1A)
[7] = low pre-treatment PRICKLE2 expression levels, out of 6 subjects (FIG. 2A)

Cn1cncc1[C@@](N)(c1ccc(Cl)cc1)c1ccc2c(c1)c(-c1cccc(Cl)c1)cc(=O)n2C [tipifarnib]
3: Number of PRs (objective responses) [1, 2] | Number of PR responses [1, 3] | Number of PR responses ([1]; high PRICKLE2 and CXCL12/CXCR4 ratio greater than about 3/20 (about 0.15), out of 6 subjects (FIG. 2B)) | Number of PR responses ([1]; high pre-treatment CXCL12 expression levels, out of 6 subjects (FIG. 1A)) | Number of PR responses ([1]; high pre-treatment PRICKLE2 expression levels, out of 6 subjects (FIG. 2A))
PR: Best Response ([1]; DLBCL subject with pre-treatment tumor CXCL12/CXCR7 ratio 6.6, 300 mg orally bid days 1-21 of 28 day cycles) | Best Response ([1]; DLBCL subject with pre-treatment tumor CXCL12/CXCR7 ratio 30.8, 300 mg orally bid days 1-21 of 28 day cycles) | Best Response ([1]; DLBCL subject with pre-treatment tumor CXCL12/CXCR7 ratio 66.8, 300 mg orally bid days 1-21 of 28 day cycles) | Best Response ([1]; Patient 35, DLBCL, pre-treatment tumor CXCL12/CXCR4 ratio 1.280, 300 mg orally bid days 1-21 of 28 day cycles) | Best Response ([1]; Patient 38, DLBCL, pre-treatment tumor CXCL12/CXCR4 ratio 0.505, 300 mg orally bid days 1-21 of 28 day cycles) | Best Response ([1]; Patient 39, DLBCL, pre-treatment tumor CXCL12/CXCR4 ratio 0.179, 300 mg orally bid days 1-21 of 28 day cycles)
SD: Best Response ([1]; DLBCL subject with pre-treatment tumor CXCL12/CXCR7 ratio 3.7, 300 mg orally bid days 1-21 of 28 day cycles) | Best Response ([1]; Patient 42, DLBCL, pre-treatment tumor CXCL12/CXCR4 ratio 0.122, 300 mg orally bid days 1-21 of 28 day cycles)
2: Number of PR responses (Mycosis Fungoides (MF); MF patients having high pre-treatment CXCL12 expression levels, out of 2 subjects) | Number of PRs (objective responses) (Mycosis Fungoides (MF); among 2 MF patients with pre-treatment tumor samples, 300 mg orally bid days 1-21 of 28 day cycles) | Number of PRs (Mycosis Fungoides (MF); two MF subjects with CXCL12/CXCR4 expression ratio of 0.6 and 2.0, out of 2 subjects) | Number of PD responses [1, 4] | Number of PD responses [1, 5] | Number of PD responses [1, 6] | Number of PD responses [1, 7]
1: Number of PR (objective responses) (Hodgkin Lymphoma (HL)) | Number of SD (objective responses) [1, 2] | Number of SD responses [1, 3] | Number of SD responses [1, 5] | Number of SD responses [1, 6] | Number of SD responses [1, 7]
PD: Best Response ([1]; DLBCL subject with pre-treatment tumor CXCL12/CXCR7 ratio 1.4, 300 mg orally bid days 1-21 of 28 day cycles) | Best Response ([1]; DLBCL subject with pre-treatment tumor CXCL12/CXCR7 ratio 3.5, 300 mg orally bid days 1-21 of 28 day cycles) | Best Response ([1]; Patient 43, DLBCL, pre-treatment tumor CXCL12/CXCR4 ratio 0.050, 300 mg orally bid days 1-21 of 28 day cycles) | Best Response ([1]; Patient 44, DLBCL, pre-treatment tumor CXCL12/CXCR4 ratio 0.012, 300 mg orally bid days 1-21 of 28 day cycles)
0: Number of PR responses (Mycosis Fungoides (MF); MF, low pre-treatment CXCL12 expression levels, out of 2 subjects) | Number of PR responses [1, 4] | Number of SD responses [1, 4] | Number of PR responses [1, 5] | Number of PR responses [1, 6] | Number of PR responses [1, 7]
